Source: article PMC10477886, “Adamantaniline Derivatives Target ATP5B to Inhibit Translation of Hypoxia Inducible Factor‐1α” (Advanced Science, 2023)

Tested on: HIF‐1α transcriptional activity
Test: dual‐luciferase assay (HRE‐Firefly Luciferase / renilla) of HIF‐1α transcriptional activity in HEK293T cells
Type: cell-based, human
Settings: Homo sapiens, HEK-293T, mean ± s.d. (n = 3); for inhibition at 10 µM: incubation 24 h, HEK293T, read-out: Inhibition rate [%] @ 10 µM; for IC50: HEK293T dual‐luciferase
Description: To screen HIF‐1α inhibitors in a robust cell‐based assay, we optimized the dual‐luciferase assay with pLenti‐HIF‐1αP2A (P402A and P564A) instead of pLenti‐HIF‐1α in order to ensure the expression of HIF‐1α under normoxia condition. In the cell‐based assay, HEK293T cells were co‐transfected with pLenti‐HIF‐1αP2A, renilla, and hypoxia‐responsive element (HRE)‐Firefly Luciferase (Figure S1, Supporting Information). […] Three compounds were selected as the positive controls including two inhibitors (PX‐478 2HCl and BAY 87‐2243) and an activator (BAY 85‐3934) in the screening assay.
HEK293T cells were stably transfected with reporter plasmids pGMLV‐HRE‐LUC‐puromycin, pMSCV‐renilla‐hygromycin, and pLenti‐HIF‐1αP2A‐neomycin. Stable cell line constructed above, 293‐HIF‐1αP2A‐HRE‐Fluc‐Rluc, were seeded in 384‐well plates and cultured in DMEM with 10% FBS. The following day, the cells were pretreated with indicated chemical compounds from the National Compound Library of the Shanghai Institute of Materia Medica, Chinese Academy of Sciences by Mosquito HTS. The plate was then placed in an incubator chamber and incubated at 37 °C for 24 h. The ratio of firefly/renilla luciferase activity was determined by using the Envision (PerkinElmer).
Stable cell line 293‐HRE‐Fluc‐Rluc expressed luciferase and renilla or HEK293T cells transfected with indicated plasmids (pGL3‐HRE‐luciferase and pSV40‐renilla) were seeded in a 96‐well plate. The cells were co‐incubated with indicated compounds for 24 h and luciferase activities were detected in Microplate Reader (BioTek SYNEGRY H1) using the Dual Luciferase Reporter Assay System Kit (Promega, USA E1910) according to the manufacturer's instruction. The relative Luc activity was normalized by renilla activity. Three independent experiments were performed, and the calculated means and SDs are presented.

Row | IC50 [nM] | Compound | inhibition at 10 µM [%]
1 | – | CC(C)(C)OC(=O)Nc1ccccc1C(=O)Nc1ccc(C23CC4CC(CC(C4)C2)C3)cc1 [1‐3p, Tert‐Butyl 2‐(2‐((4‐((3r,5r,7r)‐Adamantan‐1‐yl)Phenyl)Carbamoyl)Phenyl)Carbamate] | 40.3 ± 3.2
2 | – | O=C(Nc1ccc(C23CC4CC(CC(C4)C2)C3)cc1)c1ccc(N2CCOCC2)cc1 [1‐3ag, N‐(4‐((3r,5r,7r)‐Adamantan‐1‐yl)Phenyl)−4‐Morpholinobenzamide] | 41.6 ± 8.9
3 | – | O=C(Nc1ccc(C23CC4CC(CC(C4)C2)C3)cc1)c1ccccc1Br [1‐3d, N‐(4‐((3r,5r,7r)‐Adamantan‐1‐yl)Phenyl)−2‐Bromobenzamide] | 52.3 ± 3.1
4 | – | O=C(Nc1ccc(C23CC4CC(CC(C4)C2)C3)cc1)c1ccc(Br)cc1 [1‐3f, N‐(4‐((3r,5r,7r)‐Adamantan‐1‐yl)Phenyl)−4‐Bromobenzamide] | 67.1 ± 5.1
5 | – | COc1ccnc(C(=O)Nc2ccc(C34CC5CC(CC(C5)C3)C4)cc2)c1 [1‐4g, N‐(4‐((3r,5r,7r)‐Adamantan‐1‐yl)Phenyl)−4‐Methoxypicolinamide] | 68.5 ± 0.4
6 | 2100 ± 400 | CC(NC(=O)c1ccc(NC(=O)c2ccccn2)cc1)C12CC3CC(CC(C3)C1)C2 (centres unmarked) [2‐3c, N‐(4‐((1‐((3r,5r,7r)‐Adamantan‐1‐yl)Ethyl)Carbamoyl)Phenyl)Picolinamide] | 79.9 ± 2
7 | – | Cc1cc(C23CC4CC(C)(CC(C)(C4)C2)C3)cc(C)c1NC(=O)c1cccc(Cl)c1 [3‐2f, 3‐Chloro‐N‐(4‐((1r,3R,5S,7r)−3,5‐Dimethyladamantan‐1‐yl)−2,6‐Dimethylphenyl)Benzamide] | 65.7 ± 6.7
8 | 2100 ± 400 | CN(C)CCCC(=O)Nc1cccc(C(=O)Nc2ccc(C34CC5CC(CC(C5)C3)C4)cc2)c1 [1‐3ar, N‐(4‐((3r,5r,7r)‐Adamantan‐1‐yl)Phenyl)−3‐(4‐(Dimethylamino)Butanamido)Benzamide] | 79.4 ± 1.8
9 | 940 ± 20 | CN(C)CCCC(=O)Nc1ccc(C(=O)Nc2ccc(C34CC5CC(CC(C5)C3)C4)cc2)cc1 [1‐3at, N‐(4‐((3r,5r,7r)‐Adamantan‐1‐yl)Phenyl)−4‐(4‐(Dimethylamino)Butanamido)Benzamide] | 90 ± 1.7
10 | 1600 ± 300 | COc1ccc(C(=O)Nc2ccc(C34CC5CC(CC(C5)C3)C4)cc2)cc1 [1‐3i, N‐(4‐((3r,5r,7r)‐Adamantan‐1‐yl)Phenyl)−4‐Methoxybenzamide] | 86 ± 1.4
11 | 820 ± 130 | COc1cccc(C(=O)Nc2ccc(C34CC5CC(CC(C5)C3)C4)cc2)c1 [1‐3h, N‐(4‐((3r,5r,7r)‐Adamantan‐1‐yl)Phenyl)−3‐Methoxybenzamide] | 92.1 ± 0.6
12 | – | O=C(Nc1ccc(C23CC4CC(CC(C4)C2)C3)cc1)c1ccc(C(F)(F)F)cc1 [1‐3af, N‐(4‐((3r,5r,7r)‐Adamantan‐1‐yl)Phenyl)−4‐(Trifluoromethyl)Benzamide] | 37.9 ± 0.7
13 | 110 ± 10 | Nc1ccc(C(=O)Nc2ccc(C34CC5CC(CC(C5)C3)C4)cc2)cc1 [1‐3u, N‐(4‐((3r,5r,7r)‐Adamantan‐1‐yl)Phenyl)−4‐Aminobenzamide] | 98.4 ± 0.1
14 | – | Cn1cccc1C(=O)Nc1ccc(C23CC4CC(CC(C4)C2)C3)cc1 [1‐4n, N‐(4‐((3r,5r,7r)‐Adamantan‐1‐yl)Phenyl)−1‐Methyl‐1H‐Pyrrole‐2‐Carboxamide] | 57.5 ± 2
15 | 1300 ± 200 | CN1CCN(CCCCC(=O)Nc2cccc(C(=O)Nc3ccc(C45CC6CC(CC(C6)C4)C5)cc3)c2)CC1 [1‐3am, N‐(4‐((1s,3s)‐Adamantan‐1‐yl)Phenyl)−3‐(5‐(4‐Methylpiperazin‐1‐yl)Pentanamido)Benzamide] | 86.4 ± 0.9
16 | – | O=C(Nc1ccc(C23CC4CC(CC(C4)C2)C3)cc1)c1ccc(Cl)cc1 [1‐3c, N‐(4‐((3r,5r,7r)‐Adamantan‐1‐yl)Phenyl)−4‐Chlorobenzamide] | 63.4 ± 5.4
17 | 1400 ± 300 | O=C(Nc1ccc(C23CC4CC(CC(C4)C2)C3)cc1)c1cccc(Br)c1 [1‐3e, N‐(4‐((3r,5r,7r)‐Adamantan‐1‐yl)Phenyl)−3‐Bromobenzamide] | 86.3 ± 0.2
18 | – | CC12CC3CC(C)(C1)CC(c1cnc(NC(=O)c4cccc(Cl)c4)nc1)(C3)C2 [3‐2g, 3‐Chloro‐N‐(5‐((1r,3R,5S,7r)−3,5‐Dimethyladamantan‐1‐yl)Pyrimidin‐2‐yl)Benzamide] | 27.8 ± 8.8
19 | – | CCc1cc(C23CC4CC(CC(C4)C2)C3)cc(CC)c1NC(=O)c1cccc(Cl)c1 [3‐2i, N‐(4‐((3r,5r,7r)‐Adamantan‐1‐yl)−2,6‐Diethylphenyl)−3‐Chlorobenzamide] | 35.1 ± 5.7

Row | IC50 [nM] | Compound | inhibition at 10 µM [%]
20 | 2600 ± 500 | COC(=O)c1ccc(O)c(NC(=O)COc2ccc(C34CC5CC(CC(C5)C3)C4)cc2)c1 [LW6, reference compound] | 70.9 ± 3.7
21 | 53 ± 8 | O=C(Nc1ccc(C23CC4CC(CC(C4)C2)C3)cc1)c1ccc(O)cc1 [1‐3o, N‐(4‐((3r,5r,7r)‐Adamantan‐1‐yl)Phenyl)−4‐Hydroxybenzamide] | 96.4 ± 0.2
22 | – | O=C(Nc1ccc(C23CC4CC(CC(C4)C2)C3)cc1)c1cccc(C(F)(F)F)c1 [1‐3ae, N‐(4‐((3r,5r,7r)‐Adamantan‐1‐yl)Phenyl)−3‐(Trifluoromethyl)Nenzamide] | 20.2 ± 1.5
23 | – | O=C(Nc1ccc(C23CC4CC(CC(C4)C2)C3)cc1)c1cccnc1 [1‐4b, N‐(4‐((3r,5r,7r)‐Adamantan‐1‐yl)Phenyl)Nicotinamide] | 75.2 ± 1.9
24 | – | O=C(Nc1ncc(C23CC4CC(CC(C4)C2)C3)cn1)c1cccc(Cl)c1 [3‐2c, N‐(5‐((3r,5r,7r)‐Adamantan‐1‐yl)Pyrimidin‐2‐yl)−3‐Chlorobenzamide] | 65.3 ± 4.3
25 | 950 ± 110 | CC(=O)Nc1ccc(C(=O)Nc2ccc(C34CC5CC(CC(C5)C3)C4)cc2)cc1 [1‐3x, 4‐Acetamido‐N‐(4‐((3r,5r,7r)‐Adamantan‐1‐yl)Phenyl)Benzamide] | 84.4 ± 1.9
26 | 720 ± 20 | O=C(Nc1ccc(C23CC4CC(CC(C4)C2)C3)cc1)c1cc(Cl)ccn1 [1‐4h, N‐(4‐((3r,5r,7r)‐Adamantan‐1‐yl)Phenyl)−4‐Chloropicolinamide] | 91.5 ± 1.3
27 | 3500 ± 200 | CC(C)(C)OC(=O)Nc1cccc(C(=O)Nc2ccc(C34CC5CC(CC(C5)C3)C4)cc2)c1 [1‐3q, Tert‐Butyl (3‐((4‐((3r,5r,7r)‐Adamantan‐1‐yl)Phenyl)Carbamoyl)Phenyl)Carbamate] | 75.5 ± 0.3
28 | – | O=C(Nc1ccc(C23CC4CC(CC(C4)C2)C3)cc1)c1ccccc1C(F)(F)F [1‐3ad, N‐(4‐((3r,5r,7r)‐Adamantan‐1‐yl)Phenyl)−2‐(Trifluoromethyl)Benzamide] | 31.3 ± 3.3
29 | 370 ± 40 | O=C(CCCCN1CCOCC1)Nc1cccc(C(=O)Nc2ccc(C34CC5CC(CC(C5)C3)C4)cc2)c1 [1‐3an, N‐(4‐((1s,3s)‐Adamantan‐1‐yl)Phenyl)−3‐(5‐Morpholinopentanamido)Benzamide] | 93.4 ± 0.5
30 | 510 ± 20 | O=C(Nc1ccc(C23CC4CC(CC(C4)C2)C3)cc1)c1ccccc1O [1‐3m, N‐(4‐((3r,5r,7r)‐Adamantan‐1‐yl)Phenyl)−2‐Hydroxybenzamide] | 88.4 ± 0.2
31 | 170 ± 20 | Nc1cccnc1C(=O)Nc1ccc(C23CC4CC(CC(C4)C2)C3)cc1 [1‐4r, N‐(4‐((3r,5r,7r)‐Adamantan‐1‐yl)Phenyl)−3‐Aminopicolinamide] | 97.5 ± 1
32 | – | N#Cc1ccccc1C(=O)Nc1ccc(C23CC4CC(CC(C4)C2)C3)cc1 [1‐3j, N‐(4‐((3r,5r,7r)‐Adamantan‐1‐yl)Phenyl)−2‐Cyanobenzamide] | 41.8 ± 3.4
33 | – | CC(C)c1cc(C23CC4CC(CC(C4)C2)C3)cc(C(C)C)c1NC(=O)c1cccc(Cl)c1 [3‐2b, N‐(4‐((3r,5r,7r)‐Adamantan‐1‐yl)−2,6‐Diisopropylphenyl)−3‐Chlorobenzamide] | 27 ± 4.9
34 | 520 ± 20 | O=C(Nc1ccc(C23CC4CC(CC(C4)C2)C3)cc1)c1cncs1 [1‐4i, N‐(4‐((3r,5r,7r)‐Adamantan‐1‐yl)Phenyl)thiazole‐5‐Carboxamide] | 97.1 ± 0.4
35 | 280 ± 60 | O=C(Nc1ccc(C23CC4CC(CC(C4)C2)C3)cc1)c1ccncn1 [1‐4d, N‐(4‐((3r,5r,7r)‐Adamantan‐1‐yl)Phenyl)Pyrimidine‐4‐Carboxamide] | 97.1 ± 0.4
36 | – | CCCCCCOc1cccc(C(=O)Nc2ccc(C34CC5CC(CC(C5)C3)C4)cc2)c1 [1‐3aj, N‐(4‐((3r,5r,7r)‐Adamantan‐1‐yl)Phenyl)−3‐(Hexyloxy)Benzamide] | 28.4 ± 6.9
37 | – | Cc1cc(C23CC4CC(CC(C4)C2)C3)cc(C)c1NC(=O)c1cccc(Cl)c1 [3‐2a, N‐(4‐((3r,5r,7r)‐Adamantan‐1‐yl)−2,6‐Dimethylphenyl)−3‐Chlorobenzamide] | 34.8 ± 3.8
38 | – | O=C(Nc1ccc(C23CC4CC(CC(C4)C2)C3)cc1)c1ccccc1Cl [1‐3b, N‐(4‐((3r,5r,7r)‐Adamantan‐1‐yl)Phenyl)−2‐Chlorobenzamide] | 58.4 ± 1.5
